Results from the NIST ThermoML archive (doi:10.1016/j.jct.2011.03.019).

Conditions: Liquid, Vibrating tube method

CCCC[n+]1cccc(C)c1.F[B-](F)(F)F [1-butyl-3-methylpyridinium tetrafluoroborate]
Conditions	mass density [kg/m3]
283.12 K, 2024 kPa	1194.21
283.13 K, 5410 kPa	1195.69
283.14 K, 10608 kPa	1197.94
283.16 K, 101 kPa	1192.91
283.16 K, 20395 kPa	1202.09
283.16 K, 29989 kPa	1206.06
283.16 K, 40399 kPa	1210.24
283.16 K, 50021 kPa	1214
283.16 K, 59880 kPa	1217.75
283.16 K, 70001 kPa	1221.48
283.16 K, 80055 kPa	1225.07
283.16 K, 89979 kPa	1228.5
283.16 K, 99226 kPa	1231.6
293.13 K, 2373 kPa	1187.65
293.15 K, 101 kPa	1185.85
293.15 K, 5192 kPa	1188.92
293.15 K, 19915 kPa	1195.44
293.15 K, 29975 kPa	1199.74
293.15 K, 40033 kPa	1203.9
293.15 K, 49990 kPa	1207.91
293.15 K, 60026 kPa	1211.82
293.15 K, 69993 kPa	1215.58
293.15 K, 90002 kPa	1222.75
293.15 K, 99008 kPa	1225.82
293.16 K, 79917 kPa	1219.2
293.17 K, 10105 kPa	1191.13
298.13 K, 101 kPa	1182.41
298.15 K, 1023 kPa	1183.65
298.15 K, 5014 kPa	1185.49
298.15 K, 10024 kPa	1187.78
298.15 K, 19956 kPa	1192.22
298.15 K, 29784 kPa	1196.48
298.15 K, 39954 kPa	1200.76
298.15 K, 49921 kPa	1204.82
298.15 K, 59784 kPa	1208.71
298.15 K, 69521 kPa	1212.43
298.15 K, 79326 kPa	1216.05
298.15 K, 89784 kPa	1219.77
298.15 K, 99965 kPa	1223.26
313.13 K, 101 kPa	1172.19
313.13 K, 10051 kPa	1177.79
313.15 K, 2471 kPa	1174.15
313.15 K, 5142 kPa	1175.44
313.15 K, 39901 kPa	1191.32
313.15 K, 50020 kPa	1195.6
313.15 K, 59990 kPa	1199.68
313.15 K, 70046 kPa	1203.63
313.15 K, 79830 kPa	1207.34
313.16 K, 30021 kPa	1186.99
313.16 K, 89989 kPa	1211.04
313.17 K, 19949 kPa	1182.42
313.17 K, 99194 kPa	1214.26
323.14 K, 101 kPa	1165.48
333.13 K, 2503 kPa	1160.47
333.14 K, 101 kPa	1158.81
333.14 K, 39760 kPa	1178.53
333.15 K, 20056 kPa	1169.28
333.15 K, 29979 kPa	1174.02
333.15 K, 79731 kPa	1195.25
333.15 K, 89986 kPa	1199.09
333.15 K, 99773 kPa	1202.59
333.16 K, 5448 kPa	1161.99
333.16 K, 50021 kPa	1183.09
333.16 K, 70003 kPa	1191.43
333.17 K, 10715 kPa	1164.66
333.17 K, 60243 kPa	1187.44
343.14 K, 101 kPa	1152.1
353.12 K, 6509 kPa	1148.81
353.13 K, 8955 kPa	1150.12
353.14 K, 2790 kPa	1146.79
353.15 K, 101 kPa	1145.3
353.15 K, 90011 kPa	1186.9
353.15 K, 99259 kPa	1190.28
353.16 K, 29979 kPa	1160.91
353.16 K, 39909 kPa	1165.7
353.16 K, 50013 kPa	1170.38
353.16 K, 60153 kPa	1174.86
353.16 K, 69979 kPa	1179.02
353.16 K, 80426 kPa	1183.23
353.17 K, 21342 kPa	1156.58
363.14 K, 101 kPa	1138.4
373.12 K, 60192 kPa	1162.13
373.13 K, 50003 kPa	1157.47
373.14 K, 39996 kPa	1152.66
373.14 K, 70039 kPa	1166.42
373.14 K, 99035 kPa	1177.8
373.15 K, 5373 kPa	1134.29
373.15 K, 29979 kPa	1147.62
373.15 K, 90014 kPa	1174.46
373.16 K, 2495 kPa	1132.64
373.16 K, 10198 kPa	1137.01
373.16 K, 20336 kPa	1142.55
373.16 K, 80221 kPa	1170.63
393.15 K, 10222 kPa	1123.08
393.15 K, 20024 kPa	1128.69
393.15 K, 30013 kPa	1134.16
393.15 K, 89993 kPa	1161.76
393.15 K, 99831 kPa	1165.43
393.16 K, 40133 kPa	1139.44
393.16 K, 49970 kPa	1144.34
393.16 K, 60110 kPa	1149.13
393.16 K, 70029 kPa	1153.57
393.16 K, 80159 kPa	1157.85
393.17 K, 2485 kPa	1118.49
393.17 K, 5300 kPa	1120.18
